From patent publication US5185436A, “Esters of normal butyric acid and their use as pharmaceuticals” (priority 1990, dated 1993)
Read-outs that look alike come from different tables or passages of the source.

What was measured:
Solubility in water = format: physicochemical
rat [1] = experiment: Lethality in the rat; format: in vivo; conditions: administration of 1.12 g/kg to the rat
Method: (§1) The toxicities which are acute with the SWISS mouse and chronic with the albino rat are determined according to the usual standardized protocols.

TG 180 strain [2] = experiment: In vivo antitumoral test with the mouse, first experiment; parameters: species or system SWISS mouse; conditions: for number of survivors (tumor +) / number of survivors (tumor -) / number of animals with tumors: 15 mice per batch; for number of survivors (tumor +) / number of survivors (tumor -): compounds I to V alternately with CP and interferon; for number of animals with tumors: compounds I to V alternately with CP and interferon (0.5 ml of 8 mmolar solution), three weeks; for antitumoral therapeutic efficiency: with respect to reference batches No. 1, 2, 3 and 4, in words
Method: (3) In vivo antitumoral tests with the mouse.
The studies on the antitumoral properties have been carried out with the mouse according the CHANY and CERRUTI protocol (Int. J. Cancer, 1982, 30, 489) on the hereabove compounds I to V.
In order to obtain a tumor or tumors with mice, one uses the TG 180 strain (injection via the i.p. route of 10^6 cells for a male mouse of 25 g and of 0.1 ml of a solution of Corynbacterium Parvum Merieux (CP)).
This experiment bears on 135 SWISS mice devided into 9 batches of 15 mice each. After injection on day D0 of the TG 180 and CP cells, one proceeds in the following manner:
The reference batch No. 1 is treated every day with an injection of placebo.
The reference batch No. 2 is treated every day with an injection of CP (0.1 ml).
The reference batch No. 3 is treated every day with an injection of interferon EAT-113, 0.5 ml.
The reference batch No. 4 is treated every day alternately with CP and with interferon EAT-113, with the same doses as hereabove.
The experimental batches are treated, alternately on day D+1 with the compound according to the invention (0.5 ml of an 8 mmolar solution of a compound I to V), on day D+2 with interferon EAT-113, on day D+3 with CP, and this for three weeks.
The number of survivors is noted, as well as the presence or not of a tumor (tumor+ or tumor-) in the survivors five weeks after day D0.

TG 180 strain [3] = experiment: as above; parameters: species or system SWISS mouse; conditions: 15 mice per batch; compounds I to V alternately with CP and interferon
[4] = Acute toxicity, SWISS mouse (median lethal dose); conditions: in vivo, read-out: Median lethan dose
Method: as §1

TG 180 strain [5] = experiment: In vivo antitumoral test with the mouse, second experiment (dose effect)
[6] = tested on: cells infected by the murine AIDS TR-26 virus; experiment: In vitro action on cells infected by murine AIDS virus; format: cell-based; conditions: in words
[7] = tested on: Herpes hominis type II virus; conditions: in vivo, with interferon EAT-113; in words
[8] = tested on: neoplasic mammary cells (strain NCF 410); experiment: In vitro action on neoplasic mammary cells; format: cell-based; conditions: association with interferon EAT-113; in words
[9] = Solubilizing of the products for the in vivo antitumoral test; format: physicochemical; conditions: explanation for the small number of survivors; in words
rat [10] = conditions: Merck Index 10th edition; cited from earlier work
[11] = rabbit, i.v. 0.12 g/kg, t=60 min; cited from earlier work
TG 180 strain [12] = conditions: mouse; cited from earlier work
man = conditions: massive dose; Brazier et al; in words; cited from earlier work
fibroblasts = conditions: in words; cited from earlier work
herpes virus = conditions: in words; cited from earlier work

Compound | number of survivors (tumor +) (TG 180 strain [2]) | number of survivors (tumor -) (TG 180 strain [2]) | number of animals with tumors (TG 180 strain [2]) | number of survivors after 6 weeks (TG 180 strain [3]) | LD50 ([4]; ip) [mg/kg] | LD50 ([4]; oral route) [mg/kg] | also measured
CCCC(=O)O[C@@H]1[C@H]2OC(C)(C)O[C@H]2O[C@@H]1[C@H]1COC(C)(C)O1 [Compound I, O-butanoyl-3-di-O-isopropylidene 1,2: 5,6 α-D-glucofuranose] | 3 | 7 | 9 | 10 | 1750 ± 390 | > 8000 | solubility in water (Solubility in water; in words): slightly soluble in water; lethality (rat [1]): does not cause any lethality; antitumoral therapeutic efficiency (TG 180 strain [2]): very good antitumoral therapeutic efficiency
CCCC(=O)O[C@@H]1[C@H]2OC(C)(C)O[C@H]2O[C@@H]1[C@H](O)CO [Compound II] | 0 | 9 | 10 | 9 | 4200 ± 400 | > 8000 | survival after 100 days (TG 180 strain [5]; administered alternately with CP and interferon, whatever the concentration between 0.25 and 50 mmol/l): 30 mice amongst 45; number of surviving mice after 100 days (TG 180 strain [5]; alternately with CP, interferon omitted, average, 0.5 to 50 millimoles/l): 20 mice amongst 45; therapeutic results of the association with CP alone compared with interferon, CP plus arginine butyrate (TG 180 strain [5]; compound II plus CP, no interferon, in words): as good as the association of interferon with CP plus arginine butyrate; dose sufficient for obtaining the maximum therapeutic effect (TG 180 strain [5]; mouse): ≤ 0.44 mg of potential n-butyric acid per kilogramme of mouse; solubility (Solubility in water; water, room temperature): > 100 mg/mL; action in vitro compared with arginine butyrate [6]: stronger action in vitro on the cells infected by the murine AIDS TR-26 virus than the arginine butyrate; potentialization of the action of interferon EAT-113 [7]: potentialization of the action of interferon EAT-113 on the Herpes hominis type II virus; antitumoral therapeutic efficiency (TG 180 strain [2]): very good antitumoral therapeutic efficiency; in vitro action compared with arginine butyrate and interferon EAT-113 [8]: stronger than the association of arginine butyrate and interferon EAT-113
CCCC(=O)OC[C@@H](O)[C@H]1O[C@@H]2OC(C)(C)O[C@@H]2[C@H]1O [III, O-butanoyl-6-O-isopropylidene-1,2α-D-glucofuranose] | 3 | 8 | 7 | 11 | 3000 ± 350 | > 8000 | antitumoral therapeutic efficiency (TG 180 strain [2]): very good antitumoral therapeutic efficiency
CCCC(=O)OC[C@@H](OC(=O)CCC)[C@H]1O[C@@H]2OC(C)(C)O[C@@H]2[C@H]1OC(=O)CCC [IV, tri-O-butanoyl 3,5,6-O-isopropylidene-1,2 α-D-glucofuranose] | 0 | 3 | 13 | 3 | > 8000 | > 8000 | solubilizing [9]: difficulties for solubilizing these products
CCCC(=O)OCC(O)CO (centres unmarked) [IX, O-n-butanoyl-1, propane diol-2,3] |  |  |  |  | 2250 ± 230 | > 8000 | 
CCCC(=O)OC[C@H]1O[C@@H]2OC(C)(C)O[C@@H]2[C@H]2OC(C)(C)O[C@H]21 [V, O-n-butanoyl-6 di-O-isopropylidene-1,2:3,4α-D-galactopyranose] | 0 | 3 | 12 | 3 | 2500 ± 400 | > 8000 | solubilizing [9]: difficulties for solubilizing these products
CCCC(=O)OC[C@H]1OC(OC(=O)CCC)[C@H](OC(=O)CCC)[C@@H](OC(=O)CCC)[C@H]1OC(=O)CCC (stereo partly drawn) [VI, penta O-n-butanoyl-1,2,3,4,6 D-galactopyranose] |  |  |  |  | > 8000 | > 8000 | 
CCCC(=O)OC[C@H]1OC(OC(=O)CCC)[C@H](OC(=O)CCC)[C@@H](OC(=O)CCC)[C@@H]1OC(=O)CCC (stereo partly drawn) [VII, penta- O-n-butanoyl-1,2,3,4,6 D-glucopyranose] |  |  |  |  | > 8000 | > 8000 | 
CCCC(=O)OCC1COC(C)(C)O1 (centres unmarked) [VIII, O-n-butanoyl-1-isopropylidene-2,3-glyceryl] |  |  |  |  | 5400 ± 300 | > 8000 | 
CCCCCCCCCCCCCCCC(=O)OCC(COC(=O)CCC)OC(=O)CCCCCCCCCCCCCCC (centres unmarked) [X, O-butanoyl-3-di-O-palmitoyl-1,2 glyceryl] |  |  |  |  | > 2000 | > 6000 | 
CCCCCCCCCCCCCCCC(=O)OCC(COC(=O)CCC)OC(=O)CCC (centres unmarked) [XI, di-O-butanoyl-2,3 O-palmitoyl-1-glyceryl] |  |  |  |  | > 8000 | > 8000 | 
CC(C)=O [acetone] |  |  |  |  |  |  | median lethal dose p.o. (rat [10]): 10.7 mL/kg
CCCC(=O)O [arginine n-butyrate] |  |  |  |  |  |  | surviving mice after 100 days (TG 180 strain [5]; association of CP plus arginine butyrate without interferon): 8 mice amongst 45; therapeutic efficiency (TG 180 strain [5]; association of CP plus arginine butyrate without interferon, in words): low therapeutic efficiency; n-butyric acid present in serum [11]: 0 mmol/L; optimal dose advocated (TG 180 strain [12]): 14 mg of butyric acid; side effects in man (man): side effects in man, of the hyperammoniemy type with a reduction of the insulin secretion and disturbances of the urea cycle and of glucose metabolism
CCCC(=O)[O-].[Na+] [sodium n-butyrate] |  |  |  |  |  |  | inhibiting actions on the growth of fibroblasts (fibroblasts): interesting inhibiting actions on the growth of fibroblasts; antiviral actions (herpes virus): antiviral actions of sodium butyrate have also been characterized for the herpes virus
